From patent US9375002B2, “5-aminopyrimidine derivatives and use thereof for combating undesired plant growth” (BAYER INTELLECTUAL PROPERTY GMBH, priority 2012, dated 2016)

Tests used:
[1] = logp (HCOOH), physicochemical characterization; details: for chromatographic logP: HCOOH (formic acid)
Viola tricolor = test: Pre-emergence herbicidal effect; format: in vivo; details: 1280 g/ha, visual assessment after 3 weeks
Source text: (§1) 1. Pre-Emergence Herbicidal Effect and Crop Plant Compatibility Seeds of monocotyledonous and dicotyledonous weed plants and crop plants are placed in wood-fiber pots in sandy loam and covered with soil. The inventive compounds, formulated in the form of wettable powders (WP) or as emulsion concentrates (EC), are then applied to the surface of the covering soil as an aqueous suspension or emulsion at a water application rate of 600 to 800 I/ha (converted) with addition of 0.2% wetting agent. After the treatment, the pots are placed in a greenhouse and kept under good growth conditions for the test plants. The damage to the test plants is assessed visually after a test period of 3 weeks by comparison with untreated controls (herbicidal activity in percent (%): 100% action=the plants have died, 0% action=like control plants). VIOTR: Viola tricolor

Polygonum convolvulus [2] = test: Pre-emergence herbicidal effect; format: in vivo; details: 1280 g/ha, visual assessment after 3 weeks
Source text: as §1, with “POLCO: Polygonum convolvulus SETVI: Setaria viridis” for “VIOTR: Viola tricolor”

Matricaria inodora = test: Pre-emergence herbicidal effect; format: in vivo; details: 1280 g/ha, visual assessment after 3 weeks
Source text: as §1, with “LOLMU: Lolium multiflorum MATIN: Matricaria inodora” for “VIOTR: Viola tricolor”

Veronica persica [3] = test: Pre-emergence herbicidal effect; format: in vivo; details: 1280 g/ha, visual assessment after 3 weeks
Source text: as §1, with “STEME: Stellaria media VERPE: Veronica persica” for “VIOTR: Viola tricolor”

Stellaria media = test: Pre-emergence herbicidal effect; format: in vivo; details: 1280 g/ha, visual assessment after 3 weeks
Source text: as §1, with “STEME: Stellaria media VERPE: Veronica persica” for “VIOTR: Viola tricolor”

Amaranthus retroflexus [4] = test: Pre-emergence herbicidal effect; format: in vivo; details: 1280 g/ha, visual assessment after 3 weeks
Source text: as §1, with “AMARE: Amaranthus retroflexus ECHCG: Echinochloa crus-galli” for “VIOTR: Viola tricolor”

Alopecurus myosuroides = test: Pre-emergence herbicidal effect; format: in vivo; details: 1280 g/ha, visual assessment after 3 weeks
Source text: as §1, with “ABUTH: Abutilon theophrasti ALOMY: Alopecurus myosuroides” for “VIOTR: Viola tricolor”

Lolium multiflorum = test: Pre-emergence herbicidal effect; format: in vivo; details: 1280 g/ha, visual assessment after 3 weeks
Source text: as §1, with “LOLMU: Lolium multiflorum MATIN: Matricaria inodora” for “VIOTR: Viola tricolor”

Setaria viridis = test: Pre-emergence herbicidal effect; format: in vivo; details: 1280 g/ha, visual assessment after 3 weeks
Source text: as §1, with “POLCO: Polygonum convolvulus SETVI: Setaria viridis” for “VIOTR: Viola tricolor”

Amaranthus retroflexus [5] = test: Post-emergence herbicidal effect; format: in vivo; details: 1280 g/ha, visual rating after about 3 weeks
Procedure: (§2) AMARE: Amaranthus retroflexus ECHCG: Echinochloa crus-galli 2. Post-Emergence Herbicidal Effect and Crop Plant Compatibility Seeds of monocotyledonous and dicotyledonous weed and crop plants are placed in sandy loam in wood-fiber pots, covered with soil and cultivated in a greenhouse under good growth conditions. 2 to 3 weeks after sowing, the test plants are treated at the one-leaf stage. The compounds according to the invention, formulated in the form of wettable powders (WP) or as emulsion concentrates (EC), are then sprayed as aqueous suspension or emulsion at a water application rate of 600 to 800 I/ha (converted) with the addition of 0.2% of wetting agent onto the green parts of the plants. After the test plants have been kept in the greenhouse under optimum growth conditions for about 3 weeks, the activity of the preparations is rated visually in comparison to untreated controls (herbicidal activity in percent (%): 100% activity=the plants have died, 0% activity=like control plants).

Abutilon theophrasti = test: Post-emergence herbicidal effect; format: in vivo; details: 1280 g/ha, visual rating after about 3 weeks
Procedure: as §2, with “ABUTH: Abutilon theophrasti ALOMY: Alopecurus myosuroides” for “AMARE: Amaranthus retroflexus ECHCG: Echinochloa crus-galli”

Echinochloa crus-galli = test: Pre-emergence herbicidal effect; format: in vivo; details: 1280 g/ha, visual assessment after 3 weeks
Source text: as §1, with “AMARE: Amaranthus retroflexus ECHCG: Echinochloa crus-galli” for “VIOTR: Viola tricolor”

Polygonum convolvulus [6] = test: Post-emergence herbicidal effect; format: in vivo; details: 1280 g/ha, visual rating after about 3 weeks
Procedure: as §2, with “POLCO: Polygonum convolvulus SETVI: Setaria viridis” for “AMARE: Amaranthus retroflexus ECHCG: Echinochloa crus-galli”

Veronica persica [7] = test: Post-emergence herbicidal effect; format: in vivo; details: 1280 g/ha, visual rating after about 3 weeks
Procedure: as §2, with “STEME: Stellaria media VERPE: Veronica persica” for “AMARE: Amaranthus retroflexus ECHCG: Echinochloa crus-galli”

Structure (SMILES): Cc1ccc2c(c1)[C@H](Nc1cnc(S(C)(=O)=O)nc1C#N)[C@@H](C)C2 [compound 108]
- logp (HCOOH) [1]: solid; logp (HCOOH): 3.29; 1H-NMR (CDCl3, 400 MHZ, δ in ppm): 1.25 (d, 3H, CH3);

Structure (SMILES): CS(=O)(=O)c1ncc(N[C@@H]2CCCc3ccccc32)c(C(N)=O)n1 [compound 87]
- logp (HCOOH) [1]: wax-like; logp (HCOOH): 1.86; 1H-NMR (CDCl3, 400 MHZ, δ in ppm): 1.85 (m, 2H, 2H

Structure (SMILES): Cc1ccc2c(c1)[C@H](Nc1cnc(C#N)nc1)[C@@H](C)C2 [compound 76]
- logp (HCOOH) [1]: wax-like; logp (HCOOH): 3.17; 1H-NMR (CDCl3, 400 MHZ, δ in ppm): 1.25 (d, 3H,

Structure (SMILES): CCc1ccc2c(c1)C(Nc1cnc(C#N)nc1)CCO2 (centres unmarked) [Ex. 64, 5-[(6-Ethyl-3,4-dihydro-2H-chromen-4-yl)amino]pyrimidine-2-carbonitrile]
- chromatographic logP [1]: 2.8

Structure (SMILES): FC(F)(F)c1ncc(N[C@@H]2CCc3ccccc32)cn1 [Ex. 115, N-[(1R)-2,3-Dihydro-1H-inden-1-yl]-2-(trifluoromethyl)pyrimidine-5-amine]
- chromatographic logP [1]: 3.05
- melting point: 123.7 °C

Structure (SMILES): CCc1ccc2c(c1)C(Nc1cnc(S(C)(=O)=O)nc1C#N)CCO2 (racemic) [compound 66]
- herbicidal activity VIOTR (Viola tricolor): 100%
- herbicidal activity POLCO (Polygonum convolvulus [2]): 90%
- logp (HCOOH) [1]: wax-like; logp (HCOOH): 2.54; 1H-NMR (CDCl3, 400 MHZ, δ in ppm): 1.15 (t, 3H,
- herbicidal activity MATIN (Matricaria inodora): 90%
- herbicidal activity VERPE (Veronica persica [3]): 100%
- herbicidal activity STEME (Stellaria media): 100%
- herbicidal activity AMARE (Amaranthus retroflexus [4]): 100%

Structure (SMILES): Cc1ccc2c(c1)[C@H](Nc1cnc(S(C)(=O)=O)nc1C(=O)NC1CC1)[C@@H](C)C2 [compound 139]
- herbicidal activity VIOTR (Viola tricolor): 100%
- herbicidal activity ALOMY (Alopecurus myosuroides): 90%
- herbicidal activity MATIN (Matricaria inodora): 100%
- herbicidal activity LOLMU (Lolium multiflorum): 100%
- herbicidal activity VERPE (Veronica persica [3]): 100%
- herbicidal activity STEME (Stellaria media): 100%
- herbicidal activity AMARE (Amaranthus retroflexus [4]): 100%

Structure (SMILES): Cc1ccc2c(c1)[C@H](Nc1cnc(S(C)(=O)=O)nc1C(N)=O)[C@@H](C)C2 [compound 93, 5-{[(1R,2S)-2,6-Dimethyl-2,3-dihydro-1H-inden-1-yl]amino}-2-(methylsulfonyl)pyrimidine-4-carboxamide]
- herbicidal activity VIOTR (Viola tricolor): 100%
- herbicidal activity POLCO (Polygonum convolvulus [2]): 100%
- herbicidal activity SETVI (Setaria viridis): 90%
- herbicidal activity AMARE (Amaranthus retroflexus [5]): 80%
- herbicidal activity ABUTH (Abutilon theophrasti): 80%
- herbicidal activity ALOMY (Alopecurus myosuroides): 90%
- chromatographic logP [1]: 2.21
- herbicidal activity MATIN (Matricaria inodora): 100%
- herbicidal activity LOLMU (Lolium multiflorum): 90%
- herbicidal activity VERPE (Veronica persica [3]): 100%
- herbicidal activity STEME (Stellaria media): 100%
- herbicidal activity AMARE (Amaranthus retroflexus [4]): 100%
- herbicidal activity ECHCG (Echinochloa crus-galli): 100%

Structure (SMILES): CCc1ccc2c(c1)C(Nc1cnc(C(F)(F)F)nc1)CCO2 (racemic) [compound 70]
- logp (HCOOH) [1]: wax-like; logp (HCOOH): 3.41; 1H-NMR (CDCl3, 400 MHZ, δ in ppm): 1.15 (t, 3H,

Structure (SMILES): Cc1cc(C)c2c(c1)C(Nc1cnc(S(C)(=O)=O)nc1)CCO2 (racemic) [compound 62]
- logp (HCOOH) [1]: wax-like; logp (HCOOH): 4.06; 1H-NMR (CDCl3, 400 MHZ, δ in ppm): 2.10-2.35 (m,

Structure (SMILES): CS(=O)(=O)c1ncc(N[C@@H]2CCc3ccccc32)cn1 [compound 131]
- herbicidal activity POLCO (Polygonum convolvulus [2]): 100%
- herbicidal activity SETVI (Setaria viridis): 90%
- herbicidal activity AMARE (Amaranthus retroflexus [5]): 80%
- herbicidal activity MATIN (Matricaria inodora): 100%
- herbicidal activity POLCO (Polygonum convolvulus [6]): 80%
- herbicidal activity VERPE (Veronica persica [3]): 100%
- herbicidal activity STEME (Stellaria media): 100%
- herbicidal activity ECHCG (Echinochloa crus-galli): 100%
- herbicidal activity VERPE (Veronica persica [7]): 80%
